In US10106535B2, “Histone deacetylase inhibitors and compositions and methods of use thereof” (CHDI Foundation, Inc., priority 2013, dated 2018) one finds IC50 data, which are given here for 17 compounds.

The target in experiment [1] is human catalytic domain HDAC4 protein (amino acids 648-1032) (Homo sapiens (Human), UniProt P56524). In words: Inhibition of HDAC4 catalytic domain enzymatic activity, fluorogenic substrate Boc-Lys(Tfa)-AMC. Conditions: read-out: Biochemical HDAC-4 IC50. The source says: The potency of Class IIa Histone Deacetylase (HDAC) inhibitors is quantified by measuring the Histone Deacetylase 4 (HDAC4) catalytic domain enzymatic activity using the fluorogenic substrate, Boc-Lys(Tfa)-AMC. The substrate is deacetylated to Boc-Lys-AMC by HDAC4. Cleavage by trypsin results in the release of the fluorophore AMC from the deacetylated substrate. The fluorescence of the sample is directly related to the histone deacetylase activity in the sample.
Sequence of human catalytic domain HDAC4 protein (amino acids 648-1032) (P56524 648-1032): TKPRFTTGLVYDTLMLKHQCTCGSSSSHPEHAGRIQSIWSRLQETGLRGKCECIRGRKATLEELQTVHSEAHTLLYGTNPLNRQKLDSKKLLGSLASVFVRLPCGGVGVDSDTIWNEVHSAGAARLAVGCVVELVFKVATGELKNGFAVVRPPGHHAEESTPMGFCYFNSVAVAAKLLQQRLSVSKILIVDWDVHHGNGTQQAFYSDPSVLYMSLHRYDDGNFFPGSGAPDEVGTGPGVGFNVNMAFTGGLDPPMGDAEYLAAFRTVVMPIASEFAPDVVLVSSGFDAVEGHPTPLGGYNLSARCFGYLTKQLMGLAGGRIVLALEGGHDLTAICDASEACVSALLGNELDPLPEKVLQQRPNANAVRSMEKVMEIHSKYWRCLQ
Serial dilutions of the HDAC inhibitors and control reference compound (1-(5-(3-((4-(1,3,4-oxadiazol-2-yl)phenoxy)methyl)-1,2,4-oxadiazol-5-yl)thiophen-2-yl)-2,2,2-trifluoroethanone) are made by first resuspending the lyophilized compound to a final concentration of 10 mM in 100% dimethyl sulfoxide (DMSO). Stocks of 60 μl aliquots of the 10 mM compound in DMSO are prepared and stored at −20° C. From one stock aliquot of each compound to be tested and the reference compound, a 16-point serial dilution is prepared according to Table 7 using a 125 μl 16-channel Matrix multi-channel pipette (Matrix Technologies Ltd). […]
5 μl of each solution of 1:20 diluted compound from above is transferred to a clear bottomed, black, 384-well assay plate using the Bravo or the Janus (384-well MDT head from Perkin Elmer). […] Finally, the fluorescence is measured (Excitation: 355 nm, Emission: 460 nm) using PerkinElmer EnVision in top read mode.

For experiment [2], the system named is cellular histone deacetylase enzymatic activity in Jurkat E6-1 cells. The experiment is described as follows: Inhibition of cellular HDAC activity in Jurkat E6-1 cells, fluorogenic substrate Boc-Lys(Tfa)-AMC. It counts as cell-based. Conditions: Homo sapiens, read-out: Cell IC50. From the text:
Example 50: Analysis of Inhibition of Cellular HDAC Activity with Class IIa Histone Deacetylase (HDAC) Inhibitors
The potency of Class IIa Histone Deacetylase (HDAC) inhibitors is quantified by measuring the cellular histone deacetylase enzymatic activity using the fluorogenic substrate, Boc-Lys(Tfa)-AMC. After penetration in Jurkat E6-1 cells, the substrate is deacetylated to Boc-Lys-AMC. After cell lysis and cleavage by trypsin, the fluorophore AMC is released from the deacetylated substrate only. The fluorescence of the sample is directly related to the histone deacetylase activity in the sample.
Jurkat E6.1 cells are cultured according to standard cell culture protocols in Jurkat E6.1 Growth Media (RPMI without phenol red, 10% FBS, 10 mM HEPES, and 1 mM Sodium Pyruvate). Jurkat E6.1 cells are counted using a Coulter Counter and resuspended in Jurkat E6.1 growth media at a concentration of 75,000 cells/35 μl. 35 μl or 75,000 cells is seeded into Greiner microtitre assay plates. The plates are then incubated at 37° C. and 5% CO2 while other assay components are being prepared.
Serial dilutions of the HDAC inhibitors and control reference compound (1-(5-(3-((4-(1,3,4-oxadiazol-2-yl)phenoxy)methyl)-1,2,4-oxadiazol-5-yl)thiophen-2-yl)-2,2,2-trifluoroethanone) are made by first resuspending the lyophilized compound to a final concentration of 10 mM in 100% DMSO. Stocks of 70 μl aliquots of the 10 mM compound in DMSO are prepared and stored at −20° C. From one stock aliquot of each compound to be tested and the reference compound, a 16-point serial dilution is prepared according to Table 1 using a 125 μl 16-channel Matrix multi-channel pipette.
2 μl (200×) of each diluted solution and each control (full activity: 100% DMSO alone or full inhibition 1 mM) is stamped into V-bottom polypropylene 384-well compound plates using either the Bravo, Janus, or 12.5 μl 16-channel Matrix multi-channel pipette. Each well with the 200× compound solution is diluted 1:20 by the addition of 38 μl Jurkat assay buffer+DMSO (9.5% DMSO, RPMI without phenol red, 0.09% FBS, 9 mM Hepes, and 0.9 mM Sodium Pyruvate equilibrated to room temperature)
5× (500 μM) substrate is prepared just prior to the addition to the assay. The 5× substrate is prepared by diluting a 100 mM Boc-Lys(Tfa)-AMC in DMSO solution 1:200 by adding it drop-wise to Jurkat assay medium (RPMI without phenol red, 0.1% FBS, 10 mM Hepes, and 1 mM Sodium Pyruvate equilibrated to 37° C.) while vortexing at slow speed to prevent precipitation.
10 ml of 3× lysis buffer is prepared with 8.8 ml of 3× stock lysis buffer (50 mM Tris-HCl, pH 8.0, 137 mM NaCl, 2.7 mM KCl, 1 mM MgCl2, 1% Nonidet P40 Substitute equilibrated to room temperature) and 1.2 ml of 3 mg/ml Trypsin equilibrated to room temperature.
5 μl of each solution of 1:20 diluted compound from above is transferred to the Greiner microtitre assay plates with 75,000 cells/well using the Bravo. Cells are then incubated for 2 hours at 37° C. and 5% CO2. The assay is then started by adding 10 μl of 5× (500 μM) substrate to the assay plate using either the Bravo or 16-channel Matrix multi-channel pipette. The cells are then incubated for 3 hours at 37° C. and 5% CO2. Next, 25 μl of 3× lysis buffer is added to each well using either the 125 μl 16 channel pipette or the Bravo. The assay plate is then incubated overnight (15-16 hours) at 37° C. and 5% CO2. The following day, the plates are shaken on an orbital shaker for 1 minute at 900 rpm. Finally the top read fluorescence (Excitation: 355 nm, Emission: 460 nm) is measured using PerkinElmer EnVision.

Take `Cc1ncc(C2=C[C@](C(=O)NO)(c3cccc(F)c3C)CC2)cn1` [Example 10, (S)-1-(3-fluoro-2-methylphenyl)-N-hydroxy-3-(2-methylpyrimidin-5-yl)cyclopent-2-enecarboxamide]: the IC50 in experiment [1] worked out at 40 nM; in experiment [2] it was 380 nM.

Consider `O=C(NO)C1(c2ccccc2)CC=CC1` [Example 30, N-hydroxy-1-phenyl-cyclopent-3-enecarboxamide], for which the IC50 in experiment [2] was > 50000 nM.

Consider `O=C(NO)C1(c2ccccc2F)CC=CC1` [Example 31, 1-(2-fluorophenyl)-N-hydroxy-cyclopent-3-enecarboxamide], for which, in experiment [2], the IC50 came out at 44500 nM.

As to `Cc1c(F)cccc1[C@@]1(C(=O)NO)C=C(C2CC2)CC1` [Example 32, (S)-3-cyclopropyl-1-(3-fluoro-2-methylphenyl)-N-hydroxycyclopent-2-enecarboxamide], the IC50 in experiment [2] was 730 nM.

For the compound `O=C(NO)[C@]1(c2ccccc2)C=C(c2ccccc2)CC1` [Example 33, (S)-N-hydroxy-1,3-diphenylcyclopent-2-enecarboxamide], the IC50 in experiment [2] came to 2500 nM.

With `O=C(NO)[C@@]1(c2ccccc2)C=C(c2ccccc2)CC1` [Example 34, (R)-N-hydroxy-1,3-diphenylcyclopent-2-enecarboxamide], the IC50 in experiment [2] was > 50000 nM.

In the case of `O=C(NO)[C@]1(c2ccccc2)C=C(c2cncc(F)c2)CC1` [Example 35, (S)-3-(5-fluoropyridin-3-yl)-N-hydroxy-1-phenylcyclopent-2-enecarboxamide], the IC50 in experiment [2] was 3100 nM.

Regarding `Cc1ncc(Cl)cc1C1=C[C@](C(=O)NO)(c2cccc(F)c2C)CC1` [Example 36, (S)-3-(5-chloro-2-methylpyridin-3-yl)-1-(3-fluoro-2-methylphenyl)-N-hydroxycyclopent-2-enecarboxamide], the IC50 in experiment [2] amounted to 120 nM.

Consider `Cc1ncccc1C1=C[C@](C(=O)NO)(c2cccc(F)c2C)CC1` [Example 37, (S)-1-(3-fluoro-2-methylphenyl)-N-hydroxy-3-(2-methylpyridin-3-yl)cyclopent-2-enecarboxamide], for which, in experiment [2], the IC50 turned out to be 90 nM.

On to `Cc1c(F)cccc1[C@@]1(C(=O)NO)C=C(c2ccc3cnn(C)c3c2)CC1` [Example 38, (S)-1-(3-fluoro-2-methylphenyl)-N-hydroxy-3-(1-methyl-1H-indazol-6-yl)cyclopent-2-enecarboxamide], for which the IC50 in experiment [2] was 10 nM.

As for `Cc1c(F)cccc1[C@@]1(C(=O)NO)C=C(c2ccc3cnn(C(F)F)c3c2)CC1` [Example 39, (S)-3-(1-(difluoromethyl)-1H-indazol-6-yl)-1-(3-fluoro-2-methylphenyl)-N-hydroxycyclopent-2-enecarboxamide], in experiment [2], the IC50 stood at 30 nM.

In the case of `Cc1c(F)cccc1[C@@]1(C(=O)NO)C=C(c2ccc3scnc3c2)CC1` [Example 40, (S)-3-(benzo[d]thiazol-5-yl)-1-(3-fluoro-2-methylphenyl)-N-hydroxycyclopent-2-enecarboxamide], the IC50 in experiment [2] came out at 50 nM.

`Cc1c(F)cccc1[C@@]1(C(=O)NO)C=C(c2cc3ccccc3s2)CC1` [Example 41, (S)-3-(benzo[b]thiophen-2-yl)-1-(3-fluoro-2-methylphenyl)-N-hydroxycyclopent-2-enecarboxamide]: in experiment [2], the IC50 was 40 nM.

As to `Cc1c([C@@]2(C(=O)NO)C=C(c3ccc4cnn(C)c4c3)CC2)ccc(F)c1F` [Example 42, (S)-1-(3,4-difluoro-2-methylphenyl)-N-hydroxy-3-(1-methyl-1H-indazol-6-yl)cyclopent-2-enecarboxamide], the IC50 in experiment [2] was 20 nM.

With `O=C(NO)C1(c2ccccc2)CC=C(c2cncc(F)c2)CC1` (stereo not drawn) [Example 43, 4-(5-fluoropyridin-3-yl)-N-hydroxy-1,2,3,6-tetrahydro-[1,1′-biphenyl]-1-carboxamide], the IC50 in experiment [2] amounted to 39000 nM.

On to `Cc1c(F)cccc1C1(C(=O)NO)CC=C(c2cncc(F)c2)CC1` (stereo not drawn) [Example 44, 3′-fluoro-4-(5-fluoropyridin-3-yl)-N-hydroxy-2′-methyl-1,2,3,6-tetrahydro-[1,1′-biphenyl]-1-carboxamide], for which, in experiment [2], the IC50 is 670 nM.

On to `Cc1c(F)cccc1C1(C(=O)NO)CC=C(c2ccc3nccnc3c2)CC1` (stereo not drawn) [Example 45, 3′-fluoro-N-hydroxy-2′-methyl-4-(quinoxalin-6-yl)-1,2,3,6-tetrahydro-[1,1′-biphenyl]-1-carboxamide], for which the IC50 in experiment [2] was 520 nM.

The IC50 is the point on the concentration scale where inhibition reaches its midpoint.
